{"source": "patent US10434132B2", "about": "“Galactolipids-enriched plant extracts and the uses thereof” (ACADEMIA SINICA, priority 2013, dated 2019)", "key": {"[1]": {"test_system": "hypoxia inducible factor-1α (HIF-1α)", "experiment": "HIF-1α expression in LPS-challenged mice", "format": "in vivo", "details": "FIG. 9A, 9C; pre-treatment before LPS", "description": "(§1) The plant components or the drugs were all injected an hour before administration of LPS. Another animal group was only treated with 25 mg/kg dLGG (dLGG 25 only). All groups were sacrificed after 24 hours and blood samples were collected by retro-orbital bleeding before scarification of mice and organ tissues were collected immediately."}, "[2]": {"test_system": "LPS/D-GaIN-challenged mice", "experiment": "LPS/D-GaIN-induced acute fulminant hepatitis in mice", "format": "in vivo", "description": "The hepatoprotective effect in live body of compound dLGG isolated from Crassocephalum rabens (Asteraceae) in LPS/D-GaIN-induced fulminant hepatitis were investigated and compared with the hepatoprotective drug, silymarin (SM). Mice were randomly separated into four groups (n=6 per group) for treatments: vehicle; LPS/D-GaIN; 50 mg/kg of silymarin (Post-SM50); and 10 mg/kg dLGG (post-dLGG10), and all treatments were given intraperitoneally. One hour after the mice treated with 500 ng LPS and 250 μL saline containing 25 mg D-GaIN (Huang et al., 2012), the dLGG and silymarin were given intraperitoneally. Besides, the other two groups of mice were treated dLGG or silymarin continuously for three days to perform the protection effect of dLGG against LPS/D-GaIN induced fulminate hepatitis. Eight hours after LPS/D-GaIN injection, blood samples were collected through retro-orbital bleeding, and then all mice were sacrificed to collect blood samples and liver tissues.\n(§2) Liver, lung and kidney tissues were fixed in 10% buffered formalin then it were embedded into paraffin. The paraffin-embedded tissues were sliced (8-μm) and stained by hematoxylin and eosin (H&E). Besides, sections of paraffin-embedded liver and lung (4-μm for thickness) were heat immobilized and deparaffinized by use of xylene and rehydrated in a graded series of ethanol with a final wash in distilled water, and finally soaked into decloaking chamber (Biocare Medical) containing Target Retrieval Solution (DakoCytomation) for antigen retrieval.\nIn situ detection of apoptotic cells was conducted according to the manufacturer's protocol (Chemicon). It is using terminal deoxynucleotidyl transferase to work on nucleotide sequence to […] for terminal deoxynucleotidyl transferase-mediated dUTP nick end labeling. Finally, AxioVision software (Carl Zeiss MicroImaging, Inc.) was used to analyze the number of TUNEL-positive cells.\n(§3) Blood samples of tested mice were centrifuged under 4° C., 1400× g for 15 minutes to separate serum from blood. Commercial kit purchased from Randox Laboratories (UK) was used to determine the activity of aspartate aminotransferase (AST) and alanine aminotransferase (ALT) in serum supernatants."}, "PPAR-δ": {"test_system": "PPAR-δ", "experiment": "PPAR-δ expression in LPS-challenged mice", "format": "in vivo", "details": "FIG. 9B, 9D; pre-treatment before LPS", "description": "as §1"}, "tyrosinase": {"test_system": "tyrosinase", "experiment": "Western blot of tyrosinase expression in B16 melanoma cells", "format": "cell-based", "details": "FIG. 10C, 45 μM dLGG", "description": "(§4) The cellular proteins were produced according to previously published method (Chiang et al., 2005). Protein content was measured by Bradford method (Bio-Rad).\n(§5) Molecular mechanism of dLGG depigmentation effect was further studied. Western blotting assay was preceded for testing the effect of dLGG on tyrosinase and MITF expression."}, "LPS-challenged mice": {"test_system": "LPS-challenged mice", "experiment": "LPS-induced acute inflammation and sepsis in mice", "format": "in vivo", "description": "as §1, §2\nImmunohistochemistry with liver, lung and kidney tissues were done by incubating the samples into F4/80 primary antibody for overnight respectively. After subsequent washing, each of the samples was incubated using florescent-labeled secondary antibody. Florescent images of the macrophage cell infiltration (positive F4/80 stained cell) were captured by AxioVision software (Carl Zeiss MicroImaging, Inc.) and then analyzed.\nas §3\nSerum levels of interleukin (IL-6) and tumor necrosis factor-alpha (TNF-α) were determined using a commercial kit from eBioscience."}, "MITF": {"test_system": "MITF", "experiment": "Western blot of MITF expression in B16 melanoma cells", "format": "cell-based", "details": "FIG. 10C, 45 μM dLGG", "description": "as §4, §5"}, "[3]": {"experiment": "dLGG only treatment of mice without LPS challenge", "format": "in vivo", "details": "dLGG 25 mg/kg only, no LPS, 24 hours", "description": "as §1\nMoreover, one group of mice was treated with dLGG (25 mg/kg) without LPS challenge. All the mice were sacrificed after 24 hours. Mice sera were collected to measure and compare the concentration of IL-6 and TNF-α, and the levels of AST and ALT."}, "B16 melanoma cells": {"test_system": "B16 melanoma cells", "experiment": "Depigmentation assay in B16 melanoma cells", "format": "cell-based", "details": "FIG. 10B; 45 μM, vs vehicle control", "description": "B16 melanoma cell line was obtained from ATCC (Manassas, Va.) and grown in RPMI medium 1640 (Gibco/BRL) supplemented with 10% heat-inactivated fetal bovine serum, 100 unit/mL penicillin and 100 μg/mL streptomycin, at 37° C. in a humidified 5% CO2 incubator.\nB16 melanoma cell line was plated on to 10 cm culture dishes at an initial density of 1×10^5 cells dish^−1 and then cultured under the same condition described above. After 12 hours of seeding, the cells were treated by vehicle DMSO, kojic acid (KA), ethyl acetate (EA) fractions of CR's water and ethanolic extractions (Hou et al., 2007) for 72 hours. These cells were harvested by centrifuge and visually evaluated the color of these cell pellets. In another experiment, depigmentation effect of the single compound dLGG was observed and evaluated at different time points with the same procedure."}, "[4]": {"details": "FIG. 5A, dLGG 10 mg/kg or SM 50 mg/kg i.p. 1 hour after LPS/D-GaIN, blood at 8 hours"}, "[5]": {"details": "high dose (CR-EA 50 mg/kg, dLGG 25 mg/kg) 1 hour before 10 mg/kg LPS, serum at 24 hours"}}}
{"smiles": "CC/C=C\\C/C=C\\C/C=C\\CCCCCCCC(=O)OC[C@H](CO[C@@H]1O[C@H](CO)[C@H](O)[C@H](O)[C@H]1O)OC(=O)CCCCCCC/C=C\\C/C=C\\C/C=C\\CC", "note": "[dLGG, 1,2,di-O-α-linolenoyl-3-O-β-galactopyranosyl-sn-glycerol]", "values": [{"measurement": "HIF-1α expression", "setting": "[1]", "result": "down-regulated"}, {"measurement": "serum ALT level", "setting": "[2]; [4]", "result": "significantly inhibit"}, {"measurement": "serum AST level", "setting": "[2]; [4]", "result": "significantly inhibit"}, {"measurement": "liver histology H&E (infiltration of inflammatory cells into liver lobules, tissue destruction, erythrocyte influx)", "setting": "[2]; FIG. 5B, dLGG 10 mg/kg or SM 50 mg/kg i.p. 1 hour after LPS/D-GaIN", "result": "attenuated"}, {"measurement": "numbers of apoptosis cells, TUNEL positive-stained cells in liver tissue", "setting": "[2]; FIG. 5C, dLGG 10 mg/kg i.p. after LPS/D-GaIN", "result": "significantly decreased"}, {"measurement": "protection against LPS/D-GaIN-induced fulminant hepatic failure", "setting": "[2]; pre-treated 1 or 10 mg/kg 1 hour before LPS/D-GaIN-challenge, data not shown", "result": "significant protection effect"}, {"measurement": "PPAR-δ expression", "setting": "PPAR-δ", "result": "down-regulated"}, {"measurement": "expression of tyrosinase (western blot)", "setting": "tyrosinase", "result": "inhibit the expression"}, {"measurement": "sepsis-induced acute kidney injury, renal histology (H&E)", "setting": "LPS-challenged mice; FIG. 8A, pre-treated 1 hour before LPS, simvastatin 10 mg/kg", "result": "remarkably protective effect"}, {"measurement": "infiltration and activation of macrophages (F4/80 immunohistology staining)", "setting": "LPS-challenged mice; FIG. 8C, pre-treated 1 hour before LPS, simvastatin 10 mg/kg", "result": "decreased infiltration and activation of macrophages"}, {"measurement": "damages in mice liver, lung and kidney caused by LPS", "setting": "LPS-challenged mice; dLGG 25 mg/kg after LPS-challenge, data not shown", "result": "effectively reduce damages"}, {"measurement": "serum ALT decrease", "setting": "LPS-challenged mice; [5]", "result": 2.3, "unit": "times"}, {"measurement": "serum AST decrease", "setting": "LPS-challenged mice; [5]", "result": 1.8, "unit": "times"}, {"measurement": "serum IL-6 decrease", "setting": "LPS-challenged mice; [5]", "result": 3.5, "unit": "times"}, {"measurement": "serum TNF-α decrease", "setting": "LPS-challenged mice; [5]", "result": 3.0, "unit": "times"}, {"measurement": "expression of MITF (western blot)", "setting": "MITF", "result": "inhibit the expression"}, {"measurement": "harm to mice", "setting": "[3]", "result": "harmfulless to mice"}, {"measurement": "depigmentation of B16 melanoma cells at different time points", "setting": "B16 melanoma cells", "result": "significantly depigmentation in a time-dependent manner"}]}
